Like-named read-outs stand apart in the source and are kept apart here.
Columns and labels:
Format in all cases: cell-based
[1] = tested on: T84 cells; experiment: Inhibition of T84 colon carcinoma cell proliferation (WST-1, Example 1); details: Homo sapiens, 24 hours incubation
Procedure: The effect of N,N,-diethyl-8,8-dipropyl-2-azaspiro[4,5]decane-2-propanamine dimaleate (Compound 1) on proliferation of human colon carcinoma cells T84 and CaCo-2 was evaluated in the following manner. Cell proliferation was measured by WST-1 dye conversion to Formazan assay using the proliferation kit from BioVision, CA. The procedure used was essentially as described in the manufacture's instructions. Briefly, cells were grown for 7 days until they formed semi-confluent monolayers. On day 7, cells were trypsinized and resuspended in 96-well plates at a concentration of approximately 40,000 cells/well and allowed to grow for 24 hours at 37° C.
Subsequently, fresh media containing increasing concentrations of Compound 1, as indicated in the FIG. 1, were added and assay plates were further incubated for an additional period of 24 hours. A solution of 5 μl of WST-1 dye per well was added and plates were read after 4 hours at 440 and 600 nm using an ELISA plate reader. The absorbance at 440 minus that at 600 nm is directly proportion to the number of proliferating cells. All samples were measured in triplicate and results were expressed as an average of three determinations.

[2] = tested on: SF-539; experiment: NCI in vitro SRB assay, CNS Cancer; details: for GI50: Homo sapiens
Procedure: (§1) An in vitro assay which tested the ability of N,N,-diethyl-8,8-dipropyl-2-azaspiro[4,5]decane-2-propanamine dimaleate (Compound 1) to inhibit the growth of known cancer cell lines was performed by the National Cancer Institute in accordance with standard procedures. See: Lin, Z. X., Hoult, J. R., and Raman, A. Sulphorhodamine B assay for measuring proliferation of a pigmented melanocyte cell line and its application to the evaluation of crude drugs used in the treatment of vitiligo. J Ethnopharmacol. 66: 141-150, 1999. Briefly, selected tumor cell lines were cultured in media containing five different concentrations of Compound 1. After 48 hours of continuous exposure, a sulforhodamine B (SRB) assay was used to estimate cell viability or growth via optical measurements.
(§2) From the measurements, the following values were determined: 1) the concentration of Compound 1 at which a tumor cell growth inhibition of 50% (relative to control) occurs (GI50), 2) the concentration of Compound 1 at which no growth occurs (total growth inhibition, TGI), and 3) the concentration of Compound 1 at which the […] (LC 50). […] FIG. 6 illustrates, graphically, tumor cell growth as a function of Compound 1 concentration of the scanned tumor cell lines.

[3] = tested on: SW-620; experiment: NCI in vitro SRB assay, Colon Cancer; details: for CC50 / GI50: Homo sapiens
Procedure: as §1, §2

[4] = tested on: HCC-2998; experiment: NCI in vitro SRB assay, Colon Cancer; details: for CC50 / GI50: Homo sapiens
Procedure: as §1, §2

[5] = tested on: HCT-15; experiment: NCI in vitro SRB assay, Colon Cancer; details: for CC50 / GI50: Homo sapiens
Procedure: as §1, §2

[6] = tested on: HCT-116; experiment: NCI in vitro SRB assay, Colon Cancer; details: for CC50 / GI50: Homo sapiens
Procedure: as §1, §2

[7] = tested on: KM12; experiment: NCI in vitro SRB assay, Colon Cancer; details: for CC50 / GI50: Homo sapiens
Procedure: as §1, §2

[8] = SW-620, Log10 conc -4.0 Moles/L
[9] = SW-620, Log10 conc -5.0 Moles/L
[10] = SW-620, Log10 conc -6.0 Moles/L
[11] = SW-620, Log10 conc -7.0 Moles/L
[12] = SW-620, Log10 conc -8.0 Moles/L
[13] = HCC-2998, Log10 conc -4.0 Moles/L
[14] = HCC-2998, Log10 conc -5.0 Moles/L
[15] = HCC-2998, Log10 conc -6.0 Moles/L
[16] = HCC-2998, Log10 conc -7.0 Moles/L
[17] = HCC-2998, Log10 conc -8.0 Moles/L
[18] = HCT-15, Log10 conc -4.0 Moles/L
[19] = HCT-15, Log10 conc -5.0 Moles/L
[20] = HCT-15, Log10 conc -6.0 Moles/L
[21] = HCT-15, Log10 conc -7.0 Moles/L
[22] = HCT-15, Log10 conc -8.0 Moles/L
[23] = HCT-116, Log10 conc -4.0 Moles/L
[24] = HCT-116, Log10 conc -5.0 Moles/L
[25] = HCT-116, Log10 conc -6.0 Moles/L
[26] = HCT-116, Log10 conc -7.0 Moles/L
[27] = HCT-116, Log10 conc -8.0 Moles/L

In the case of `CCCC1(CCC)CCC2(CCN(CCCN(CC)CC)C2)CC1.O=C(O)/C=C\C(=O)O.O=C(O)/C=C\C(=O)O` [Compound 1, N,N,-diethyl-8,8-dipropyl-2-azaspiro[4,5]decane-2-propanamine dimaleate], the IC50 [1] is reported as 625 to 1250 nM, the “Log10 TGI” value [2] is reported as −5.50 and the TGI [2] is reported as 3.13 µM. For the same molecule, the GI50 ([2]; read-out: GI50) was 1570 nM, the GI50 ([2]; read-out: Log10 GI50 (converted)) was 1580 nM and the “Mean Optical Densities” value ([2]; Log10 conc -4.0 Moles/L) was 0.033. The “Percent Growth” value ([2]; Log10 conc -4.0 Moles/L) was −89%, the “Mean Optical Densities” value ([2]; Log10 conc -5.0 Moles/L) was 0.050 and the “Percent Growth” value ([2]; Log10 conc -5.0 Moles/L) was −84%. For the same molecule, the “Mean Optical Densities” value ([2]; Log10 conc -6.0 Moles/L) was 0.559, the “Percent Growth” value ([2]; Log10 conc -6.0 Moles/L) was 83% and the “Mean Optical Densities” value ([2]; Log10 conc -7.0 Moles/L) was 0.612. The “Percent Growth” value ([2]; Log10 conc -7.0 Moles/L) was 100%, the “Mean Optical Densities” value ([2]; Log10 conc -8.0 Moles/L) was 0.591 and the “Percent Growth” value ([2]; Log10 conc -8.0 Moles/L) was 93%. For the same molecule, the CC50 ([3]; SW-620, read-out: LC50) was 5.17 µM, the CC50 ([3]; SW-620, read-out: Log10 LC50 (converted)) was 5.13 µM and the GI50 ([3]; SW-620, read-out: GI50) was 1380 nM. The GI50 ([3]; SW-620, read-out: Log10 GI50 (converted)) was 1380 nM, the “Log10 TGI” value ([3]; SW-620) was −5.57 and the TGI ([3]; SW-620) was 2.67 µM. The “Mean Optical Densities” value [3, 8] was −0.016, the “Percent Growth” value [3, 8] was −100% and the “Mean Optical Densities” value [3, 9] was −0.002. For the same molecule, the “Percent Growth” value [3, 9] was −100%, the “Mean Optical Densities” value [3, 10] was 0.789 and the “Percent Growth” value [3, 10] was 75%. For the same molecule, the “Mean Optical Densities” value [3, 11] was 0.948, the “Percent Growth” value [3, 11] was 95% and the “Mean Optical Densities” value [3, 12] was 0.948. For the same molecule, the “Percent Growth” value [3, 12] was 95%, the “Log10 TGI” value ([4]; HCC-2998) was −6.62 and the TGI ([4]; HCC-2998) was 239 nM. For the same molecule, the “Mean Optical Densities” value [4, 13] was 0.036, the “Percent Growth” value [4, 13] was −84% and the “Mean Optical Densities” value [4, 14] was 0.019. For the same molecule, the “Percent Growth” value [4, 14] was −92%, the “Mean Optical Densities” value [4, 15] was 0.057 and the “Percent Growth” value [4, 15] was −74%. For the same molecule, the “Mean Optical Densities” value [4, 16] was 0.303, the “Percent Growth” value [4, 16] was 45% and the “Mean Optical Densities” value [4, 17] was 0.338. For the same molecule, the “Percent Growth” value [4, 17] was 64%, the CC50 ([4]; HCC 2998, read-out: LC50) was 628 nM and the CC50 ([4]; HCC 2998, read-out: Log10 LC50 (converted)) was 631 nM. For the same molecule, the GI50 ([4]; HCC-2998, read-out: GI50) was 54.9 nM, the GI50 ([4]; HCC-2998, read-out: Log10 GI50 (converted)) was 55 nM and the “Log10 TGI” value ([5]; HCT-15) was −5.87. For the same molecule, the TGI ([5]; HCT-15) was 1.34 µM, the “Mean Optical Densities” value [5, 18] was −0.026 and the “Percent Growth” value [5, 18] was −100%. The “Mean Optical Densities” value [5, 19] was −0.027, the “Percent Growth” value [5, 19] was −100% and the “Mean Optical Densities” value [5, 20] was 0.371. The “Percent Growth” value [5, 20] was 14%, the “Mean Optical Densities” value [5, 21] was 0.819 and the “Percent Growth” value [5, 21] was 75%. For the same molecule, the “Mean Optical Densities” value [5, 22] was 0.878, the “Percent Growth” value [5, 22] was 83% and the CC50 ([5]; HCT-15, read-out: LC50) was 3.65 µM. It also gave a CC50 ([5]; HCT-15, read-out: Log10 LC50 (converted)) of 3.63 µM, a GI50 ([5]; HCT-15, read-out: GI50) of 261 nM and a GI50 ([5]; HCT-15, read-out: Log10 GI50 (converted)) of 263 nM. The “Log10 TGI” value ([6]; HCT-116) was −5.63, the TGI ([6]; HCT-116) was 2.37 µM and the “Mean Optical Densities” value [6, 23] was 0.061. The “Percent Growth” value [6, 23] was −63%, the “Mean Optical Densities” value [6, 24] was 0.051 and the “Percent Growth” value [6, 24] was −69%. For the same molecule, the “Mean Optical Densities” value [6, 25] was 0.407, the “Percent Growth” value [6, 25] was 41% and the “Mean Optical Densities” value [6, 26] was 0.675. The “Percent Growth” value [6, 26] was 87%, the “Mean Optical Densities” value [6, 27] was 0.744 and the “Percent Growth” value [6, 27] was 99%. It also gave a CC50 ([6]; HCT-116, read-out: LC50) of 6.73 µM, a CC50 ([6]; HCT-116, read-out: Log10 LC50 (converted)) of 6.76 µM and a GI50 ([6]; HCT-116, read-out: GI50) of 646 nM. It also gave a GI50 ([6]; HCT-116, read-out: Log10 GI50 (converted)) of 646 nM, a CC50 ([7]; KM12, read-out: LC50) of 7.13 µM and a CC50 ([7]; KM12, read-out: Log10 LC50 (converted)) of 7.08 µM. The GI50 ([7]; KM12, read-out: GI50) was 1510 nM, the GI50 ([7]; KM12, read-out: Log10 GI50 (converted)) was 1510 nM and the “Log10 TGI” value ([7]; KM12) was −5.48. The TGI ([7]; KM12) was 3.29 µM, the “Mean Optical Densities” value ([7]; KM12, Log10 conc -4.0 Moles/L) was 0.210 and the “Percent Growth” value ([7]; KM12, Log10 conc -4.0 Moles/L) was −52%. The “Mean Optical Densities” value ([7]; KM12, Log10 conc -5.0 Moles/L) was 0.123, the “Percent Growth” value ([7]; KM12, Log10 conc -5.0 Moles/L) was −72% and the “Mean Optical Densities” value ([7]; KM12, Log10 conc -6.0 Moles/L) was 1.243. For the same molecule, the “Percent Growth” value ([7]; KM12, Log10 conc -6.0 Moles/L) was 77%, the “Mean Optical Densities” value ([7]; KM12, Log10 conc -7.0 Moles/L) was 1.402 and the “Percent Growth” value ([7]; KM12, Log10 conc -7.0 Moles/L) was 92%. The “Mean Optical Densities” value ([7]; KM12, Log10 conc -8.0 Moles/L) was 1.429 and the “Percent Growth” value ([7]; KM12, Log10 conc -8.0 Moles/L) was 94%.

Reference: patent US20050250801A1, “Method of treating cancer with azaspirane compositions” (priority 2003, published 2005)
